Experimental data as given in patent publication US20080207529A1, “Isolated Dipeptides with Ace Inhibitor Effect” (CHR. HANSEN A/S, priority 2005, published 2008).

Target: angiotensin-converting enzyme (ACE) (Homo sapiens, UniProt P12821)
Experiment: BioSelact on-line ACE inhibitor bioassay (Kiadis)
Type: biochemical
Conditions: determined by the BioSelect method of Kiadis of aqueous extracts of the fat+cell fraction
Experimental: Supernatants of whole fermentations, whey liquids, chloroform and aqueous extracts from fat/cell fractions were all pH adjusted before analysis. First the solutions were adjusted to pH 3. After centrifugation the precipitate was removed. During a second step the pH was adjusted to 7.5 (pH of bioassay). Again precipitate was removed from the solution after centrifugation. The remaining supernatants were used for BioSelact analysis.
250 mg of fat/cell preparation was extracted with 250 μl MilliQ. The solution was positioned on a flat shaker for 2 hours at room temperature. The fat/cell fraction was removed after extraction by centrifugation.
During the first step of the BioSelact analysis, the aqueous solutions were analyzed by applying a general chromatographic gradient: 5-95% MeOH/0.05% TFA in 75 min. For these general analyses a Phenomenex, LUNA C18(2), 5 μm, 2*250 mm analytical column was used. The chromatographic separation was carried out at a flow rate of 0.2 ml/min at ambient temperature. The injection volume was 250 μl. The organic modifier concentration in the Liquid Chromatography (LC) effluent was decreased to bioassay compatible levels by performing continuous dilution using the BioGradient composition from Kiadis. […]
After completing the first general chromatographic ‘sweep’, the presence of bioactivity in each sample was carefully assessed by the Kiadis ACE inhibitor assay. […]

angiotensin-converting enzyme (ACE), sequence (P12821 30-1306, species assumed): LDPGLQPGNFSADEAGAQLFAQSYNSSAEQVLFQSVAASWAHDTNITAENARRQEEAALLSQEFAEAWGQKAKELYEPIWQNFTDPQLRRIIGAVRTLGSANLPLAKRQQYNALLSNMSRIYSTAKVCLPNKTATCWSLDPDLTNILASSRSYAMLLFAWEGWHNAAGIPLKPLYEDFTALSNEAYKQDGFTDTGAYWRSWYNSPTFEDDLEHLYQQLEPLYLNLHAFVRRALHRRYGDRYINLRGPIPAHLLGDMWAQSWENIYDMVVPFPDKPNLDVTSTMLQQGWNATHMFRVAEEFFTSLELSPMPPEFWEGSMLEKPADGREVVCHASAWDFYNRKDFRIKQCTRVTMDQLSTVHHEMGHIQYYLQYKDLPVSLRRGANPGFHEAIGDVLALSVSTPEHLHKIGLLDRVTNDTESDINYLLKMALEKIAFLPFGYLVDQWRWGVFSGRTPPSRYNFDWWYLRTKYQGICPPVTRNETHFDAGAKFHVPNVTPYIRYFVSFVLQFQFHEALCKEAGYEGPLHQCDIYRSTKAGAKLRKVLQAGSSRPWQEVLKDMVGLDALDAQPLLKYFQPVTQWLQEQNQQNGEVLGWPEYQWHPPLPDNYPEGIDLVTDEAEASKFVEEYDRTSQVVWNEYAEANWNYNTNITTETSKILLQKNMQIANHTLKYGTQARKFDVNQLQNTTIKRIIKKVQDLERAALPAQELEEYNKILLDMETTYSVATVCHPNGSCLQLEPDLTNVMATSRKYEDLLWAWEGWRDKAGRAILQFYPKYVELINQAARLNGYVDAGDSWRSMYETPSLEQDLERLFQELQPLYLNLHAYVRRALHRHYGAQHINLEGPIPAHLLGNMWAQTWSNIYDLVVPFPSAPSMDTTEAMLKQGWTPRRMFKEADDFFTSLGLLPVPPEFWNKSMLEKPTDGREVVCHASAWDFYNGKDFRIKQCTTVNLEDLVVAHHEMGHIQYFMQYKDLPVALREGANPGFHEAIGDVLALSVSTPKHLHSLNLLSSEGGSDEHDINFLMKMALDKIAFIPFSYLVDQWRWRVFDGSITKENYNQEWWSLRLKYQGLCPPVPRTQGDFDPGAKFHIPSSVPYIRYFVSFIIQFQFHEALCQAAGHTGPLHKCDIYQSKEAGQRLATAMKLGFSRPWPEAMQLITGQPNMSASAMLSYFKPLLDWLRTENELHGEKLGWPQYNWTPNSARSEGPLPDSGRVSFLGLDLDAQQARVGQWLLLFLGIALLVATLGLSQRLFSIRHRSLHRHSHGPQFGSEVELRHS

Ile-Pro-Pro [IPP]
Relative inhibition (relative ACE inhibitory activity): 0.7%
